This is an account of results in patent US20200017495A1, “NOVEL HETEROCYCLIC COMPOUNDS AND THEIR USE IN PREVENTING OR TREATING BACTERIAL INFECTIONS” (priority 2017, published 2020).

By AUC(0-inf) is commonly meant total exposure, with the tail of the curve extrapolated.

This data set in a line: Rat intraduodenal bioavailability determination. The class given is in vivo, Male Sprague-Dawley (SD) rats. As to conditions: 10 mg/kg, AF2 titrated in plasma. On the procedure:
Method 3: Rat Intraduodenal Bioavailability Determination (Table 7) Intravenous (jugular) or intraduodenal catheterized Male Sprague-Dawley (SD) rats (250-270 g) were obtained from Janvier Labs (Le Genest-Saint-Isle, France). All rats were housed in a −temperature (20±2° C.) and −humidity (55%±10%) controlled room with 12h light/dark cycle, and were acclimatized for at least 4 days before experimentation. Water and food were available ad libitum throughout the study. All rats were handled in accordance with the institutional and national guidelines for the care and use of laboratory animals. Rats were allocated to two groups based on the administration route: intravenous or intraduodenal administration (n=3/group). In the intravenous administration study, drugs (10 mg/kg in phosphate buffer 10 mM, pH7.4) were administered under isoflurane anesthesia via the catheter placed in the jugular vein. […] The pharmacokinetic parameters were calculated using XLfit (IDBS) and Excel (Microsoft) software, using standard non-compartmental methods. The intraduodenal bioavailability was calculated by dividing the AUC obtained from the intraduodenal administration by the AUC obtained from the intravenous administration.

Take `O=C1N2CC(c3ncco3)=CC(C2)N1OC(F)(F)C(=O)[O-].[Li+]` (centres unmarked) [AF2]: where the note is “intravenous”, the “AUC 0-∞” value came to 10789 ng·h/mL. For the same compound, the AUC(0-inf) (male, Sprague-Dawley, plasma, iv) worked out at 11000 ng·h/mL.
